Experimental data as given in US7288528B2, “Aromatic fluoroglycoside derivatives, medicaments containing these compounds, and the use thereof” (Sanofi-Aventis Deutschland GmbH, priority 2002, dated 2007).

Molecular target: T1, SGLT (Oryctolagus cuniculus, UniProt P11170)
T1 construct: To prepare brush border membranes from rabbit small intestine, rabbits were sacrificed; from tissue; host or cells: rabbit small intestine mucosa, brush border membrane vesicles (Mg2+ precipitation method)
T1 sequence (P11170 1-662): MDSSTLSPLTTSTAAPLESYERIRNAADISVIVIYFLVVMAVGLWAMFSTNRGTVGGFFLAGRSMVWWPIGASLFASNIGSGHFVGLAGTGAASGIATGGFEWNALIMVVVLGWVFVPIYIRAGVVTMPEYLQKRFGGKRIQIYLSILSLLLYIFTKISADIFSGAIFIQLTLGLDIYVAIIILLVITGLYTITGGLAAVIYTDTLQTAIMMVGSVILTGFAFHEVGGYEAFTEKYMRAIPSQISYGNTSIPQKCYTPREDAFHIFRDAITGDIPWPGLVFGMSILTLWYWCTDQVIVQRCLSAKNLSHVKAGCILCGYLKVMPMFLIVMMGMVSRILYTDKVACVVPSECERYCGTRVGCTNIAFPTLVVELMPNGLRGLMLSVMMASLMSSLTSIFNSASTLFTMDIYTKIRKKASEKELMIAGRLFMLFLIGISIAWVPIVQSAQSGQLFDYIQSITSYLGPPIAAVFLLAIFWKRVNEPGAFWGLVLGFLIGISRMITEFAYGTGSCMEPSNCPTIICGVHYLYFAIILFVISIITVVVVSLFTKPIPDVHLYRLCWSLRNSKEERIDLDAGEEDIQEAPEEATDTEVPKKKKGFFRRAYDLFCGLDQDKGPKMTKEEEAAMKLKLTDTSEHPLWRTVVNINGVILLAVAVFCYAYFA
Test: Glucose uptake by brush border membrane vesicles (transport assay, membrane filtration method)
Format: biochemical
Conditions: uptake of 10 μM [14C]D-glucose into rabbit small intestine brush border membrane vesicles, 30° C., 15 seconds

`OCC1OC(Oc2ccccc2Cc2ccccc2)C(O)C(O)C1F` (centres unmarked) [Example 2] and `COc1ccc(Cc2ccccc2OC2OC(CO)C(F)C(O)C2O)cc1` (centres unmarked) [Example 1] are within 1.5-fold of each other in IC50: 700 nM for the first, 500 nM for the second.

Going from `Cc1cc(O)c(C(=O)CCc2ccc3occc3c2)c(OC2OC(CO)C(F)C(O)C2O)c1` (single isomer, unassigned) [Example 5] to `COc1ccc(CCC(=O)c2c(O)cc(C)cc2OC2OC(CO)C(F)C(O)C2O)cc1` (centres unmarked) [Example 7], the IC50 rises from 400 nM to 900 nM (2.2-fold). The first is the more potent here.

`Cc1cc(O)c(C(=O)CCc2ccc3occc3c2)c(OC2OC(CO)C(F)C(O)C2O)c1` (single isomer, unassigned) [Example 4] gave an IC50 of 1500 nM.
